Data from the Kinase Knowledgebase extract (Sharma et al. 2016).
pIC50: −log10 of the molar value.

biological target: MAPK14 (human) (UniProt Q16539); assay: Inhibition of MAPK14 Kinase Activity
Sequence (Q16539 whole entry, looked up): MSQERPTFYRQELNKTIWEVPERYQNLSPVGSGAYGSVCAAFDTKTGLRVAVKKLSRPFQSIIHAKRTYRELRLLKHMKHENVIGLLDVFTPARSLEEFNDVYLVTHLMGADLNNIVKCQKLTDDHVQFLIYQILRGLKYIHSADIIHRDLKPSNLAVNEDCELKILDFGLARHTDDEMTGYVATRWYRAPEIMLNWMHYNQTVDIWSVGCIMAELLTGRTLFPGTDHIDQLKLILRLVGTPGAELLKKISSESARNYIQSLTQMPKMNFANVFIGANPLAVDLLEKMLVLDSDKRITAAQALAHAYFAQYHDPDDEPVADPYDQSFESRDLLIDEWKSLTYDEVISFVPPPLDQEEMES

| SMILES | pIC50 |
| --- | --- |
| O=C(c1cccc(Cl)c1)c1c(NC(=O)C2CCNCC2)sc2c1ccc(=O)n2-c1ccccc1 | > 5.70 |
| CC(=O)Nc1sc2c(ccc(=O)n2CC2CC2)c1C(=O)c1ccc(F)c(C)c1 | > 5.70 |
| Cc1cc(C(=O)c2c(N)sc3c2ccc(=O)n3-c2ccccc2Cl)ccc1F | > 5.70 |
| COc1ccccc1C(=O)c1c(N)sc2c1ccc(=O)n2-c1ccccc1 | > 5.70 |
| Nc1sc2c(ccc(=O)n2-c2ccccc2)c1C(=O)c1cccc(F)c1 | > 5.70 |
| Cc1cc(C(=O)c2c(NC3CN(C)C3)sc3c2ccc(=O)n3CC2CC2)ccc1F | > 5.70 |
| C=CCNC(=O)Nc1sc2c(ccc(=O)n2-c2ccccc2)c1C(=O)c1cccc(C)c1 | > 5.70 |
| O=C(c1ccccc1)c1c(NC(=O)C2CCNCC2)sc2c1ccc(=O)n2CC1CC1 | > 5.70 |
| O=C(c1ccccc1)c1c(NC(=O)C2CCNCC2)sc2c1ccc(=O)n2-c1ccccc1 | > 5.70 |
| O=C(c1ccccc1)c1c(NC(=O)[C@@H]2CCCN2)sc2c1ccc(=O)n2-c1ccccc1 | > 5.70 |
| O=C(c1ccccc1)c1c(NC(=O)N2CC[C@@H](O)C2)sc2c1ccc(=O)n2-c1ccccc1 | > 5.70 |
| CC(C)(CO)NC(=O)Nc1sc2c(ccc(=O)n2-c2ccccc2Cl)c1C(=O)c1ccccc1 | > 5.70 |
| CCN1CCC(Nc2sc3c(ccc(=O)n3-c3ccccc3)c2C(=O)c2cccc(C)c2)CC1 | > 5.70 |
| O=C(c1ccccc1)c1c(NC2CNC2)sc2c1ccc(=O)n2-c1c(F)cccc1F | > 5.70 |
| O=C(c1cccc(C(F)(F)F)c1)c1c(NC(=O)C2CCNCC2)sc2c1ccc(=O)n2-c1ccccc1 | > 5.70 |
| CC(=O)Nc1sc2c(ccc(=O)n2-c2ccccc2)c1C(=O)c1ccccc1F | > 5.70 |
| Cc1cc(C(=O)c2c(N[C@@H]3CCN(C)C3)sc3c2ccc(=O)n3-c2ccccc2)ccc1F | > 5.70 |
| Cc1cccc(C(=O)c2c(NC(=O)N3CCN(C)CC3)sc3c2ccc(=O)n3-c2ccccc2)c1 | > 5.70 |
| CC(C)(O)CNC(=O)Nc1sc2c(ccc(=O)n2CC2CC2)c1C(=O)c1ccccc1 | > 5.70 |
| CC(=O)Nc1sc2c(ccc(=O)n2-c2ccccc2)c1C(=O)c1cccs1 | > 5.70 |

Results, then the compound that gave them:

| pIC50 | SMILES |
| --- | --- |
| > 5.70 | O=C(c1ccccc1)c1c([N+](=O)[O-])sc2c1ccc(=O)n2-c1ccccc1 |
| > 5.70 | CCN1CC(Nc2sc3c(ccc(=O)n3-c3ccccc3)c2C(=O)c2ccccc2)C1 |
| > 5.70 | O=C(c1ccccc1)c1c(NCC2CNC2)sc2c1ccc(=O)n2-c1ccccc1 |
| > 5.70 | O=C(NCCO)Nc1sc2c(ccc(=O)n2-c2ccccc2)c1C(=O)c1ccccc1 |
| > 5.70 | O=C(c1ccccc1)c1c(NC2CNC2)sc2c1ccc(=O)n2-c1ccccc1 |
| > 5.70 | CS(=O)(=O)Nc1sc2c(ccc(=O)n2-c2ccccc2)c1C(=O)c1ccccc1 |
| > 5.70 | CNC(=O)CNc1sc2c(ccc(=O)n2-c2ccccc2)c1C(=O)c1ccccc1 |
| > 5.70 | CN1CC(CNc2sc3c(ccc(=O)n3-c3ccccc3)c2C(=O)c2ccccc2)C1 |
| > 5.70 | NC(=O)CCNc1sc2c(ccc(=O)n2-c2ccccc2)c1C(=O)c1ccccc1 |
| > 5.70 | CCOC(=O)c1sc2c(ccc(=O)n2-c2ccccc2)c1C(=O)c1ccccc1 |
| > 5.70 | CC(C)(O)CNC(=O)Nc1sc2c(ccc(=O)n2-c2ccccc2)c1C(=O)c1ccccc1 |
| > 5.70 | NC1CN(c2sc3c(ccc(=O)n3-c3ccccc3)c2C(=O)c2ccccc2)C1 |
| > 5.70 | O=C(c1ccccc1)c1c(N2CCOCC2)sc2c1ccc(=O)n2-c1ccccc1 |
